Measurements taken from PubChem BioAssay AID330 (DTP/NCI, 2004).
Where “and” joins values, the source holds several entries; their conditions need not be identical. Identical values can stand only once. Inconclusive results and toxic doses are left out.

Tested on: P388 leukemia ip, CD2F1 mice, survival T/C
Assay: NCI In Vivo Anticancer Drug Screen. Data for tumor model P388 Leukemia (intraperitoneal) in CD2F1 (CDF1) mice
Conditions: endpoint: median survival time, higher = longer survival
In short: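 Mice carrying the transplanted tumor received test compound or vehicle. Survival was recorded in each group, and the value is the treated-group measurement divided by that of the vehicle-treated control group.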

[1] = dose: 100.0 mg/kg/injection, schedule: Q01DX009 (ip), vehicle: Klucel (hydroxypropylcellulose) (HPC)
[2] = dose: 200.0 mg/kg/injection, schedule: Q01DX009 (ip), vehicle: Klucel (hydroxypropylcellulose) (HPC)
[3] = dose: 12.5 mg/kg/injection, schedule: Q01DX005 (ip), vehicle: saline
[4] = dose: 25.0 mg/kg/injection, schedule: Q01DX005 (ip), vehicle: saline
[5] = dose: 50.0 mg/kg/injection, schedule: Q01DX005 (ip), vehicle: saline
[6] = dose: 50.0 mg/kg/injection, schedule: Q01DX005 (ip), vehicle: saline with Tween-80
[7] = dose: 100.0 mg/kg/injection, schedule: Q01DX005 (ip), vehicle: saline with Tween-80
[8] = dose: 200.0 mg/kg/injection, schedule: Q01DX005 (ip), vehicle: saline with Tween-80
[9] = dose: 60.0 mg/kg/injection, schedule: Q01DX005 (ip), vehicle: saline with Tween-80
[10] = dose: 120.0 mg/kg/injection, schedule: Q01DX005 (ip), vehicle: saline with Tween-80
[11] = dose: 240.0 mg/kg/injection, schedule: Q01DX005 (ip), vehicle: saline with Tween-80
[12] = dose: 50.0 mg/kg/injection, schedule: Q01DX009 (ip), vehicle: saline
[13] = dose: 100.0 mg/kg/injection, schedule: Q01DX009 (ip), vehicle: saline
[14] = dose: 200.0 mg/kg/injection, schedule: Q01DX009 (ip), vehicle: saline
[15] = dose: 100.0 mg/kg/injection, schedule: Q04DX003 (ip), vehicle: saline
[16] = dose: 200.0 mg/kg/injection, schedule: Q04DX003 (ip), vehicle: saline
[17] = dose: 400.0 mg/kg/injection, schedule: Q04DX003 (ip), vehicle: saline
[18] = dose: 100.0 mg/kg/injection, schedule: Q01DX005 (ip), vehicle: saline

In the case of `O=C1CSC(=S)N1Cc1cccnc1`, the T/C (dose: 50.0 mg/kg/injection, schedule: Q01DX009 (ip), vehicle: Klucel (hydroxypropylcellulose) (HPC)) is reported as 100 % of control, the T/C [1] is reported as 102 % of control and the T/C [2] is reported as 106 % of control.
`COc1cc2c(cc1OC)CN(C)C(C)C2` (stereo unspecified) was tested, and the T/C [3] was 101 % of control, the T/C [4] was 106 % of control and the T/C [5] was 109 % of control and 97 % of control.
In the case of `O=[N+]([O-])c1cccc(S(=O)(=O)N/N=C\c2cc([N+](=O)[O-])ccc2O)c1`, the T/C [6] is reported as 107 % of control, the T/C [7] is reported as 100 % of control and the T/C [8] is reported as 97 % of control.
`CCOP(O)(=S)OCC.[Ho]` was tested, and the T/C (dose: 100.0 mg/kg/injection, schedule: Q01DX001 (ip), vehicle: Klucel (hydroxypropylcellulose) (HPC)) was 91 % of control, the T/C (dose: 200.0 mg/kg/injection, schedule: Q01DX001 (ip), vehicle: Klucel (hydroxypropylcellulose) (HPC)) was 88 % of control and the T/C (dose: 400.0 mg/kg/injection, schedule: Q01DX001 (ip), vehicle: Klucel (hydroxypropylcellulose) (HPC)) was 90 % of control.
`Cc1[nH]n(-c2ccc(S(=O)(=O)O)cc2)c(=O)c1N=Nc1ccccc1` was tested, and the T/C [9] was 96 % of control, the T/C [10] was 100 % of control and the T/C [11] was 90 % of control.
For `O=[N+]([O-])C(Cc1ccccc1)Cc1ccccc1`, the T/C [6] was 98 % of control, the T/C [7] was 103 % of control and the T/C [8] was 97 % of control.
In the case of `O=S(=O)(SC(S(=O)(=O)c1ccccc1)S(=O)(=O)c1ccccc1)c1ccccc1`, the T/C [2] is reported as 123 % of control and the T/C (dose: 400.0 mg/kg/injection, schedule: Q01DX009 (ip), vehicle: Klucel (hydroxypropylcellulose) (HPC)) is reported as 123 % of control.
In the case of `CC(C1N(c2ccc(C(=O)NC(CCC(=O)O)C(=O)O)cc2)CC2CNc3nc(N)[nH]c(=O)c3N21)C1N(c2ccc(C(=O)NC(CCC(=O)O)C(=O)O)cc2)CC2CNc3nc(N)[nH]c(=O)c3N21` (stereo unspecified), the T/C (dose: 50.0 mg/kg/injection, schedule: Q01DX001 (ip), vehicle: saline) is reported as 94 % of control, the T/C (dose: 100.0 mg/kg/injection, schedule: Q01DX001 (ip), vehicle: saline) is reported as 108 % of control and the T/C (dose: 200.0 mg/kg/injection, schedule: Q01DX001 (ip), vehicle: saline) is reported as 116 % of control.
For `CCCCCC1CCCC2NC(=O)CCC12` (stereo unspecified), the T/C (dose: 100.0 mg/kg/injection, schedule: Q04DX002 (ip), vehicle: saline with Tween-80) was 104 % of control, the T/C (dose: 200.0 mg/kg/injection, schedule: Q04DX002 (ip), vehicle: saline with Tween-80) was 97 % of control and the T/C (dose: 400.0 mg/kg/injection, schedule: Q04DX002 (ip), vehicle: saline with Tween-80) was 89 % of control.
In the case of `COCCOC`, the T/C [12] is reported as 95 % of control, the T/C [13] is reported as 98 % of control and the T/C [14] is reported as 100 % of control. For the same molecule, the T/C (dose: 400.0 mg/kg/injection, schedule: Q01DX009 (ip), vehicle: saline) was 100 % of control.
For `NC(=S)NNCCC(=O)Nc1ccccc1C(F)(F)F`, the T/C [9] was 94 % of control, the T/C [10] was 94 % of control and the T/C [11] was 96 % of control.
`Cc1cc(N=Cc2cccs2)cc(Cl)c1O` was tested, and the T/C [15] was 101 % of control, the T/C [16] was 99 % of control and the T/C [17] was 98 % of control.
For `N#CC1CCCC(C#N)N1` (stereo unspecified), the T/C (dose: 6.25 mg/kg/injection, schedule: Q01DX005 (ip), vehicle: saline) was 100 % of control, the T/C [3] was 88 % of control and the T/C [4] was 100 % of control.
`C[C@]12C=CC(=O)C=C1CC[C@@H]1[C@@H]2[C@@H](O)C[C@@]2(C)[C@H]1CC[C@]2(O)C(=O)CO` was tested, and the T/C (dose: 50.0 mg/kg/injection, schedule: Q01DX005 (ip), vehicle: Klucel (hydroxypropylcellulose) (HPC)) was 106 % of control, the T/C (dose: 100.0 mg/kg/injection, schedule: Q01DX005 (ip), vehicle: Klucel (hydroxypropylcellulose) (HPC)) was 100 % of control and the T/C (dose: 200.0 mg/kg/injection, schedule: Q01DX005 (ip), vehicle: Klucel (hydroxypropylcellulose) (HPC)) was 91 % of control. The T/C (dose: 400.0 mg/kg/injection, schedule: Q01DX005 (ip), vehicle: Klucel (hydroxypropylcellulose) (HPC)) was 105 % of control.
`Oc1cc2c(cc1O)[C@H]1c3ccc(O)c(O)c3OC[C@@]1(O)C2` was tested, and the T/C (dose: 6.25 mg/kg/injection, schedule: Q01DX009 (ip), vehicle: saline) was 100 % of control, the T/C (dose: 12.5 mg/kg/injection, schedule: Q01DX009 (ip), vehicle: saline) was 101 % of control and the T/C (dose: 25.0 mg/kg/injection, schedule: Q01DX009 (ip), vehicle: saline) was 112 % of control. The T/C [12] was 122 % of control, the T/C [13] was 113 % of control and the T/C [14] was 115 % of control.
`O=c1oc(-c2ccccc2Br)ns1` was tested, and the T/C [1] was 107 % of control and the T/C [2] was 97 % of control.
For `CC(C)(C)C(=O)CC(=O)C(F)(F)C(F)(F)C(F)(F)F.CC(C)(C)C(=O)CC(=O)C(F)(F)C(F)(F)C(F)(F)F.CC(C)(C)C(=O)CC(=O)C(F)(F)C(F)(F)C(F)(F)F.[Pr]`, the T/C [10] was 116 % of control and the T/C [11] was 113 % of control.
For `CCOC(=O)NC(NC(=O)OCC)c1cccc(F)c1`, the T/C [15] was 99 % of control, the T/C [16] was 99 % of control and the T/C [17] was 93 % of control.
`CCCC(=O)NC1CCc2cc(OC)c(OC)c(OC)c2-c2ccc(OC)c(=O)cc21` (stereo unspecified) was tested, and the T/C (dose: 0.62 mg/kg/injection, schedule: Q01DX009 (ip), vehicle: Klucel (hydroxypropylcellulose) (HPC)) was 152 % of control, the T/C (dose: 0.63 mg/kg/injection, schedule: Q01DX009 (ip), vehicle: Klucel (hydroxypropylcellulose) (HPC)) was 178 % of control and the T/C (dose: 1.25 mg/kg/injection, schedule: Q01DX009 (ip), vehicle: Klucel (hydroxypropylcellulose) (HPC)) was 152 % of control and 233 % of control. The T/C (dose: 2.5 mg/kg/injection, schedule: Q01DX009 (ip), vehicle: Klucel (hydroxypropylcellulose) (HPC)) was 221 % of control.
In the case of `CC1CCN(C)CC1`, the T/C [4] is reported as 104 % of control, the T/C [5] is reported as 97 % of control and the T/C [18] is reported as 105 % of control.
In the case of `COc1ccc(CCNC2=CNCC2)cc1OC`, the T/C [5] is reported as 101 % of control, the T/C [18] is reported as 98 % of control and the T/C (dose: 200.0 mg/kg/injection, schedule: Q01DX005 (ip), vehicle: saline) is reported as 95 % of control.
`O=C(Nc1ccccc1Cl)Oc1ccc(C(=O)c2ccccc2)cc1` was tested, and the T/C (dose: 15.0 mg/kg/injection, schedule: Q01DX005 (ip), vehicle: saline with Tween-80) was 100 % of control, the T/C (dose: 30.0 mg/kg/injection, schedule: Q01DX005 (ip), vehicle: saline with Tween-80) was 97 % of control and the T/C [9] was 90 % of control.
For `CC(CCC(=O)O)(c1ccc(OC(=O)Nc2ccc([N+](=O)[O-])cc2)cc1)c1ccc(OC(=O)Nc2ccc([N+](=O)[O-])cc2)cc1`, the T/C [6] was 111 % of control, the T/C [7] was 96 % of control and the T/C [8] was 93 % of control.
For `Cc1cc(C(=O)CSC(=S)SC(C)(C)C)ccc1Cl`, the T/C [9] was 100 % of control, the T/C [10] was 96 % of control and the T/C [11] was 90 % of control.
For `C[Si](C)(C)ONC(=O)c1ccccc1`, the T/C (dose: 6.25 mg/kg/injection, schedule: Q01DX009 (ip), vehicle: distilled water + Tween-80) was 100 % of control, the T/C (dose: 12.5 mg/kg/injection, schedule: Q01DX009 (ip), vehicle: distilled water + Tween-80) was 92 % of control and the T/C (dose: 25.0 mg/kg/injection, schedule: Q01DX009 (ip), vehicle: distilled water + Tween-80) was 109 % of control. The T/C (dose: 50.0 mg/kg/injection, schedule: Q01DX009 (ip), vehicle: distilled water + Tween-80) was 102 % of control, the T/C (dose: 100.0 mg/kg/injection, schedule: Q01DX009 (ip), vehicle: distilled water + Tween-80) was 99 % of control and the T/C (dose: 200.0 mg/kg/injection, schedule: Q01DX009 (ip), vehicle: distilled water + Tween-80) was 105 % of control.
